Numbers after ± are expanded uncertainties. One block for each molecule: values may come before it.
Settings: Liquid, Ebulliometric method (Recirculating still)

Structure (SMILES): CCCCCCC [heptane]
- vapor or sublimation pressure (354.72 K): 60 ± 0.1 kPa
- vapor or sublimation pressure (363.74 K): 80 ± 1 kPa
- vapor or sublimation pressure (371.2 K): 100 ± 0.1 kPa

- vapor or sublimation pressure (398.12 K): 60 ± 0.1 kPa
- vapor or sublimation pressure (407.13 K): 80 ± 0.1 kPa
- vapor or sublimation pressure (414.21 K): 100 ± 0.1 kPa
Structure (SMILES): CC(C)OCCO [2-isopropoxyethanol]

- vapor or sublimation pressure (326.11 K): 60 ± 0.1 kPa
- vapor or sublimation pressure (334.61 K): 80 ± 0.1 kPa
- vapor or sublimation pressure (341.48 K): 100 ± 0.1 kPa
Structure (SMILES): CCCCCC [hexane]

— the NIST ThermoML archive (doi:10.1016/j.fluid.2008.09.026)
